Reference: patent publication US11267824B2, “Inhibitors of indoleamine 2,3-dioxygenase and/or tryptophan 2,3-dioxygenase” (IDORSIA PHARMACEUTICALS LTD, priority 2017, dated 2022)

Tests used:
[1] = biological target: Recombinant human TDO comprising amino acids 19-407 (Homo sapiens (Human), UniProt P48775); assay: TDO2 enzymatic assay (TDO inhibitory activity); type: biochemical; conditions: 15 nM enzyme, 200 μM L-tryptophan, pH7, 30 min pre-incubation, NFK quantified by LCMS; mean values if measured multiple times; read-out: hTDO activity (IC50 in nM)
Sequence of Recombinant human TDO comprising amino acids 19-407 (P48775 19-406 limits assumed): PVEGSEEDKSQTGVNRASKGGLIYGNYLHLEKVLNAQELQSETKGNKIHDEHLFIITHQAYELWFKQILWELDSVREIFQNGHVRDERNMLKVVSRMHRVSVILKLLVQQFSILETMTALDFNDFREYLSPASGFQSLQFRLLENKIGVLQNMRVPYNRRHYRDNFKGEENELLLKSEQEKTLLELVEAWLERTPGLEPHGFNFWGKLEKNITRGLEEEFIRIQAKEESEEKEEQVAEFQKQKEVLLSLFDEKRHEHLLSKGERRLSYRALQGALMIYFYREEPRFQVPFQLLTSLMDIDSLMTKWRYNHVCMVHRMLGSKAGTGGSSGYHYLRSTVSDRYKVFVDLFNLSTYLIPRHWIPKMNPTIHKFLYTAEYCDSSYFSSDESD
Protocol: 2) Testing Compounds for TDO Inhibitory Activity in a TDO2 Enzymatic Assay:
Recombinant human TDO comprising amino acids 19-407 with a N-terminal hexahistidine tag expressed in E. coli and purified to homogeneity is incubated at a final concentration of 15 nM in assay buffer consisting of 75 mM phosphate buffer at pH7 supplemented with 100 μM ascorbic acid, 50 U/ml Catalase, 0.01% BSA, and 0.01% Tween 20 (protocol modified from Seegers et al, JBS 2014). Example compounds are serially diluted in DMSO, further diluted in phosphate buffer, and added to the reaction mixture at final concentrations ranging from 10 μM to 0.5 nM. The final DMSO concentration is 0.6%. Following a pre-incubation of 30 minutes at RT, the reaction is started by the addition of L-tryptophan at a final concentration of 200 μM in assay buffer. After 30 minutes of incubation at RT, 3 μL of the reaction mixture are transferred to a 384 deep well plate containing 25 μL of deionized water. 100 μl of 200 nM L-Tryptophan-(indole-d5) in cold 100% methanol are added followed by a 10 minutes centrifugation at 4,000 rpm at 4° C. An additional 75 μL of deionized water are then added and followed by a 10 minutes centrifugation at 4,000 rpm at 4° C. The product of the reaction N′-Formylkynurenine (NFK) is quantified by LCMS and normalized to the L-Tryptophan-(indole-d5) signal. Samples with 0.6% DMSO (0% effect) and a TDO/IDO inhibitor (100% effect) are used as control samples to set the parameters for the non-linear regression necessary for the determination of the half-maximal inhibitory concentration (IC50) for each compound. For each compound concentration the percentage of activity compared to 0% and 100% effect is calculated as average±STDEV (each concentration measured in duplicate). IC50 values and curves are generated with XLfit software (IDBS) using Dose-Response One Site model 203 (four parameter logistic curve model). When compounds are measured multiple times, mean values are given.

[2] = biological target: Recombinant full-length human IDO1 (Homo sapiens (Human), UniProt P14902); assay: IDO1 enzymatic assay (IDO inhibitory activity); type: biochemical; conditions: 2 nM enzyme, 5 μM L-tryptophan, pH6.5, 30 min pre-incubation, NFK quantified by LCMS; mean values if measured multiple times; read-out: hIDO activity (IC50 in nM)
Sequence of Recombinant full-length human IDO1 (P14902 whole entry): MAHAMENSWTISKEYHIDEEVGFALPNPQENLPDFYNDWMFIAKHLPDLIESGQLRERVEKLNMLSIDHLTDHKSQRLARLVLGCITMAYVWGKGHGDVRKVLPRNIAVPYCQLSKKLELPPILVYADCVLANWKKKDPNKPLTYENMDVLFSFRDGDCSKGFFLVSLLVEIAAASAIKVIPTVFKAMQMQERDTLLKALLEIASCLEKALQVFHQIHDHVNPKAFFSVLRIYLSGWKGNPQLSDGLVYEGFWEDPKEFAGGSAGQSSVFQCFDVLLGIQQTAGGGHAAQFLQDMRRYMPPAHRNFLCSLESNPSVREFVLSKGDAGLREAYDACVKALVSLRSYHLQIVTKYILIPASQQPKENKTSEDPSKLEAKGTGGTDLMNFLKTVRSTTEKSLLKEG
Protocol: 1) Testing Compounds for IDO Inhibitory Activity in an IDO1 Enzymatic Assay:
Recombinant full-length human IDO1 with a N-terminal hexahistidine tag expressed in E. coli and purified to homogeneity is incubated at a final concentration of 2 nM in assay buffer consisting of 37.5 mM phosphate buffer at pH6.5 supplemented with 10 mM sodium L-ascorbate, 0.45 μM methylene blue, 50 U/ml catalase, 0.01% BSA, and 0.01% Tween 20 (protocol modified from Seegers et al, JBS 2014). Example compounds are serially diluted in DMSO, further diluted in phosphate buffer, and added to the enzyme at final concentrations ranging from 10 μM to 0.5 nM. The final DMSO concentration is 0.6%. Following a pre-incubation of 30 minutes at RT, the reaction is started by the addition of L-tryptophan at a final concentration of 5 μM in assay buffer. After 30 minutes of incubation at RT, 3 μL of the reaction mixture are transferred to a 384 deep well plate containing 25 μL of deionized water. 100 μl of 200 nM L-Tryptophan-(indole-d5) in cold 100% methanol are added followed by a 10 minutes centrifugation at 4,000 rpm at 4° C. An additional 75 μL of deionized water are then added and followed by a 10 minutes centrifugation at 4,000 rpm at 4° C. The product of the reaction N′-Formylkynurenine (NFK) is quantified by LCMS and normalized to the L-Tryptophan-(indole-d5) signal. Samples with 0.6% DMSO (0% effect) and a TDO/IDO inhibitor (100% effect) are used as control samples to set the parameters for the non-linear regression necessary for the determination of the half-maximal inhibitory concentration (IC50) for each compound. For each compound concentration the percentage of activity compared to 0% and 100% effect is calculated as average ±STDEV (each concentration measured in duplicate). IC50 values and curves are generated with XLfit software (IDBS) using Dose-Response One Site model 203 (four parameter logistic curve model). When compounds are measured multiple times, mean values are given.

SMILES | IC50 [1] [nM] | IC50 [2] [nM]
CCc1sc2cncn2c1C(O)C1CC(C)(C)C1 (racemic) [Example 180, rac-(3,3-Dimethyl-cyclobutyl)-(2-ethyl-imidazo[5,1-b]thiazol-3-yl)-methanol] | 72.9 | 6.65
Cc1sc2cncn2c1C(O)C1CCN(c2ccccc2)CC1 (racemic) [Example 169, rac-(2-Methyl-imidazo[5,1-b]thiazol-3-yl)-(1-phenyl-piperidin-4-yl)-methanol] | 3960 | 537
CC1(C)CCC(C(O)c2c(C(F)(F)F)sc3cncn23)C1 (stereo not shown) [Example 108, (3,3-Dimethyl-cyclopentyl)-(2-trifluoromethyl-imidazo[5,1-b]thiazol-3-yl)-methanol] | 922 | 56.7
Cc1sc2cncn2c1C(O)c1cccs1 (racemic) [Example 57, rac-(2-Methyl-imidazo[5,1-b]thiazol-3-yl)-thiophen-2-yl-methanol] | 829 | 433
CCc1sc2cncn2c1C(O)c1cn(C2CCCC2)nn1 (racemic) [Example 198, rac-(1-Cyclopentyl-1H-[1,2,3]triazol-4-yl)-(2-ethyl-imidazo[5,1-b]thiazol-3-yl)-methanol] | > 10200 | 116
OC(CC1CCCCC1)c1c(Br)sc2cncn12 (racemic) [Example 33, rac-1-(2-Bromo-imidazo[5,1-b]thiazol-3-yl)-2-cyclohexyl-ethanol] | 1410 | 55.7
CC(C)Cc1sc2cncn2c1C(O)CC1CCCCC1 (racemic) [Example 99, rac-2-Cyclohexyl-1-(2-isobutyl-imidazo[5,1-b]thiazol-3-yl)-ethanol] | 1070 | 837
OC(c1c(C2CC2)sc2cncn12)C12CCC(c3ccccc3)(C1)C2 (racemic) [Example 190, rac-(2-Cyclopropyl-imidazo[5,1-b]thiazol-3-yl)-(4-phenyl-bicyclo[2.1.1]hex-1-yl)-methanol] | 891 | 61.2
COC1CCCC(C(O)c2c(C3CC3)sc3cncn23)C1 (stereo not shown) [Example 79, (2-Cyclopropyl-imidazo[5,1-b]thiazol-3-yl)-(3-methoxy-cyclohexyl)-methanol] | 1850 | 109
OC(CC1CCC(C(F)F)CC1)c1c(C2CC2)sc2cncn12 (racemic) [Example 138, rac-1-(2-Cyclopropyl-imidazo[5,1-b]thiazol-3-yl)-2-(4-difluoromethyl-cyclohexyl)-ethanol] | 467 | 24.3
OC1CCC(C(O)c2c(C3CC3)sc3cncn23)CC1 (racemic) [Example 151, rac-4-[(2-Cyclopropyl-imidazo[5,1-b]thiazol-3-yl)-hydroxy-methyl]-cyclohexanol] | 2640 | 102
O[C@H](c1c(C2CCC2)sc2cncn12)C1CCCCC1 [Example 7a, (S)-(2-Cyclobutylimidazo[5,1-b]thiazol-3-yl)(cyclohexyl)methanol] | 138 | 39.7
OC(c1c(C2CC2)sc2cncn12)C1CCCC1Cc1ccccc1 (stereo not shown) [Example 91, (2-Benzyl-cyclopentyl)-(2-cyclopropyl-imidazo[5,1-b]thiazol-3-yl)-methanol] | 1640 | 288
OC(c1c(Cl)sc2cncn12)C1CCCCCC1 (racemic) [Example 17, rac-(2-Chloro-imidazo[5,1-b]thiazol-3-yl)-cycloheptyl-methanol] | 301 | 170
OC(Cc1c(Cl)cccc1Cl)c1c(C2CC2)sc2cncn12 (racemic) [Example 60, rac-1-(2-Cyclopropyl-imidazo[5,1-b]thiazol-3-yl)-2-(2,6-dichloro-phenyl)-ethanol] | 455 | 287
CC1(C)CCC(C[C@H](O)c2c(C3CC3)sc3cncn23)C1 (stereo partly drawn) [Example 34a, (S)-1-(2-Cyclopropyl-imidazo[5,1-b]thiazol-3-yl)-2-(3,3-dimethyl-cyclopentyl)-ethanol] | 262 | 19.5
CC1(C)CCC(CC(O)c2c(C3CC3)sc3cncn23)C1 (stereo not shown) [Example 34, 1-(2-Cyclopropyl-imidazo[5,1-b]thiazol-3-yl)-2-(3,3-dimethyl-cyclopentyl)-ethanol] | 321 | 39.4
CC(C)Cc1sc2cncn2c1C(O)C1CCCCC1 (racemic) [Example 98, rac-Cyclohexyl-(2-isobutyl-imidazo[5,1-b]thiazol-3-yl)-methanol] | 583 | 435
CC1(CC(O)c2c(C3CC3)sc3cncn23)CCC1 (racemic) [Example 39, rac-1-(2-Cyclopropyl-imidazo[5,1-b]thiazol-3-yl)-2-(1-methyl-cyclobutyl)-ethanol] | 300 | 41.7
Cc1ccc(C(O)c2c(C3CC3)sc3cncn23)cc1 (racemic) [Example 51, rac-(2-Cyclopropyl-imidazo[5,1-b]thiazol-3-yl)-p-tolyl-methanol] | 1460 | 48.4
OC(c1ccccc1)c1c(C2CC2)sc2cncn12 (racemic) [Example 50, rac-(2-Cyclopropyl-imidazo[5,1-b]thiazol-3-yl)-phenyl-methanol] | 989 | 50.5
CC1(CC(O)c2c(C3CC3)sc3cncn23)CCCCC1 (racemic) [Example 23, rac-1-(2-Cyclopropyl-imidazo[5,1-b]thiazol-3-yl)-2-(1-methyl-cyclohexyl)-ethanol] | 204 | 40.5
CCc1sc2cncn2c1[C@@H](O)C1CCCCC1 [Example 96a, (S)-Cyclohexyl-(2-ethyl-imidazo[5,1-b]thiazol-3-yl)-methanol] | 20 | 5.32
Cc1sc2cncn2c1C(O)C1CCC(C)(C)C1 (stereo not shown) [Example 141, (3,3-Dimethyl-cyclopentyl)-(2-methyl-imidazo[5,1-b]thiazol-3-yl)-methanol] | 412 | 81.2
C=Cc1sc2cncn2c1C(O)CC1CCCCC1 (stereo not shown) [Example 97, 2-Cyclohexyl-1-(2-vinyl-imidazo[5,1-b]thiazol-3-yl)-ethanol] | 62.6 | 10.5
CC(C)n1cc(C(O)c2c(C3CC3)sc3cncn23)cn1 (racemic) [Example 188, rac-(2-Cyclopropyl-imidazo[5,1-b]thiazol-3-yl)-(1-isopropyl-1H-pyrazol-4-yl)-methanol] | > 10200 | 111
OC(c1c(Cl)sc2cncn12)C1CC1 (racemic) [Example 19, rac-(2-Chloro-imidazo[5,1-b]thiazol-3-yl)-cyclopropyl-methanol] | 2660 | 1040
Cc1sc2cncn2c1C(O)C1(C)CCCCC1 (racemic) [Example 174, rac-(1-Methyl-cyclohexyl)-(2-methyl-imidazo[5,1-b]thiazol-3-yl)-methanol] | 37.9 | 32.4
O[C@@H](CC1CCCCC1)c1c(Cl)sc2cncn12 [Example 16a, (S)-1-(2-Chloro-imidazo[5,1-b]thiazol-3-yl)-2-cyclohexyl-ethanol] | 658 | 35.6
